Results taken from patent US20150313922A1, “COMPOSITIONS AND METHODS FOR THE TREATMENT OF CANCERS ASSOCIATED WITH A DEFICIENCY IN THE MRE11/RAD50/NBS1 DNA DAMAGE REPAIR COMPLEX” (SLOAN-KETTERING INSTITUTE FOR CANCER RESEARCH, priority 2012, published 2015).
Read-outs that look alike come from different tables or passages of the source.

Tests used:
[1] = test system: cancer cells exhibiting reduced MRN complex formation and/or functionality; assay: Growth and/or survival inhibition of cancer cells with reduced MRN complex by clastogenic agents; assay type: cell-based
[2] = test system: murine embryonic fibroblast cells that express a low level of Mre11 (Mre11-impaired; Mre11^ATLD1/ATLD1); assay: Colony formation of Mre11-impaired vs WT murine embryonic fibroblasts exposed to DNA damaging agents; assay type: cell-based
[3] = cancer cells with reduced MRN complex formation and/or functionality, no experiment described

CC[C@@]1(O)C(=O)OCc2c1cc1n(c2=O)Cc2cc3ccccc3nc2-1 [campththecin, camptothecin]
sensitivity to growth and/or survival inhibition [1, 3]: increased sensitivity

COS(C)(=O)=O [methymethanesulfate, methyl methanesulfonate]
sensitivity to growth and/or survival inhibition [1, 3]: increased sensitivity

COc1cccc2c1C(=O)c1c(O)c3c(c(O)c1C2=O)C[C@@](O)(C(C)=O)C[C@@H]3O[C@H]1C[C@H](N)[C@H](O)[C@H](C)O1 [daunorubicin]
sensitivity to growth and/or survival inhibition [1, 3]: do not exhibit increased sensitivity

N.N.[Cl][Pt][Cl] [cisplatin]
sensitivity to growth and/or survival inhibition [1, 3]: increased sensitivity

O=C1c2c(O)ccc(O)c2C(=O)c2c(NCCNCCO)ccc(NCCNCCO)c21 [mitoxantrone]
sensitivity to growth and/or survival inhibition [1, 3]: do not exhibit increased sensitivity

CC[C@@]1(O)C(=O)OCc2c1cc1n(c2=O)Cc2cc3c(CN(C)C)c(O)ccc3nc2-1 [topotecan]
sensitivity to growth and/or survival inhibition [1, 3]: increased sensitivity

CO[C@@]12[C@H](COC(N)=O)C3=C(C(=O)C(C)=C(N)C3=O)N1C[C@@H]1N[C@@H]12 [mitomycin C]
sensitivity to growth and/or survival inhibition [1, 3]: increased sensitivity

CCCCC(=O)OCC(=O)[C@]1(O)Cc2c(O)c3c(c(O)c2[C@@H](O[C@H]2C[C@H](NC(=O)C(F)(F)F)[C@H](O)[C@H](C)O2)C1)C(=O)c1c(OC)cccc1C3=O [valrubicin]
sensitivity to growth and/or survival inhibition [1, 3]: do not exhibit increased sensitivity

CCc1c2c(nc3ccc(OC(=O)N4CCC(N5CCCCC5)CC4)cc13)-c1cc3c(c(=O)n1C2)COC(=O)[C@]3(O)CC [irinotecan]
sensitivity to growth and/or survival inhibition [1, 3]: increased sensitivity

COc1cccc2c1C(=O)c1c(O)c3c(c(O)c1C2=O)C[C@@](O)(C(=O)CO)C[C@@H]3O[C@H]1C[C@H](N)[C@@H](O)[C@H](C)O1 [epirubicin]
sensitivity to growth and/or survival inhibition [1, 3]: do not exhibit increased sensitivity

N.N.O=C([O-])C1(C(=O)[O-])CCC1.[Pt+2] [carboplatin]
sensitivity to growth and/or survival inhibition [1, 3]: increased sensitivity

CC(=O)[C@]1(O)Cc2c(O)c3c(c(O)c2[C@@H](O[C@H]2C[C@H](N)[C@H](O)[C@H](C)O2)C1)C(=O)c1ccccc1C3=O [idarubicin]
sensitivity to growth and/or survival inhibition [1, 3]: do not exhibit increased sensitivity

O=P1(N(CCCl)CCCl)NCCCO1 (stereo not shown) [cyclophosphamide]
sensitivity to growth and/or survival inhibition [1]: increased sensitivity

COc1cccc2c1C(=O)c1c(O)c3c(c(O)c1C2=O)C[C@@](O)(C(=O)CO)C[C@@H]3O[C@H]1C[C@H](N)[C@H](O)[C@H](C)O1 [Adriamycin, doxorubicin]
susceptibility (proportion colony formation vs. concentration) of Mre11-impaired cells as compared to WT cells ([2]; Mre11^ATLD1/ATLD1 vs WT murine embryonic fibroblasts, mean of triplicate samples): equivalent response
growth and/or survival inhibition of a cell having a reduced level of MRN complex formation and/or functionality ([2]; summary statement of the description): no effect
sensitivity to growth and/or survival inhibition [1, 3]: do not exhibit increased sensitivity
